These are literature values, as cited in patent publication US6608222B2, “Bioactive conjugated linoleic acid glycerides and method of use” (Alpha Food Ingredients, Inc., priority 2000, dated 2003).

In the data set the test system is hamsters. To be noted: feeding studies with hamsters; compared with a composite group of CLA-FFA isomers.

For the compound `CCCCCC/C=C/C=C\CCCCCCCC(=O)O` [purified c-9, t-11 CLA-FFA, cis-9, trans-11-octadecadienoic acid], the biological activity result is “not so biologically active as a composite group of CLA-FFA isomers”.
